Key:
Homo sapiens = species: Homo sapiens; assay: Selectivity ratio of IC50 for PI3K alpha (unknown origin) to IC50 for human His6-tagged PDK1
[1] = target: T1, 3-phosphoinositide-dependent protein kinase 1 (Homo sapiens) (UniProt O15530); assay: Selectivity ratio of IC50 for PDK1-mediated AKT phosphorylation at Thr308 in human PC3 cells to IC50 for human His6-tagged PDK1; assay type: cell-based; conditions: PC-3
T1 sequence (whole entry): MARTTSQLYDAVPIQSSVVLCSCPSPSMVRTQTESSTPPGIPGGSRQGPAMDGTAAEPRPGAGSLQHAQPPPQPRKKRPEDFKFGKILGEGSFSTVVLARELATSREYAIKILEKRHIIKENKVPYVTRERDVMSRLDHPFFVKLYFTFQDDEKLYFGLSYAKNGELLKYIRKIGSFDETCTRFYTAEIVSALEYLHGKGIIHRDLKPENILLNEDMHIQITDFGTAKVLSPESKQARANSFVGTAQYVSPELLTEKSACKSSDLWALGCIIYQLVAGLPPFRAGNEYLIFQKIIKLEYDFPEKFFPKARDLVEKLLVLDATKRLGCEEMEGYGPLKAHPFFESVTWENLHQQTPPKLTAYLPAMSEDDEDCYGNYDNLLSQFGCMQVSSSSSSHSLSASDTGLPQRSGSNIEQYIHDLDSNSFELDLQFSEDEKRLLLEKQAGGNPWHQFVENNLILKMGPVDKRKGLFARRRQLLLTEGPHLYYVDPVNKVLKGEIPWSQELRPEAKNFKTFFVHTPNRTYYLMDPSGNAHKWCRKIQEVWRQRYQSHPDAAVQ

[2] = target: Interleukin-1 receptor-associated kinase 4 (Homo sapiens) (UniProt Q9NWZ3); assay: Inhibition of human IRAK4 (14 to 460 residues) assessed as enzyme activity at 1 uM using 33P ATP by radioactive filter binding assay; parameters: scale not given: the % may be the effect or the level left
[3] = target: Tyrosine-protein kinase JAK2 (Homo sapiens) (UniProt O60674); assay: Inhibition of JAK2 (unknown origin) assessed as enzyme activity at 1 uM using 33P ATP by radioactive filter binding assay; parameters: scale not given: the % may be the effect or the level left
[4] = target: Mitogen-activated protein kinase 9 (Homo sapiens) (UniProt P45984); assay: Inhibition of human JNK2 (1 to 424 residues) assessed as enzyme activity at 1 uM using 33P ATP by radioactive filter binding assay; parameters: scale not given: the % may be the effect or the level left
[5] = target: Serine/threonine-protein kinase MARK1 (Homo sapiens) (UniProt Q9P0L2); assay: Inhibition of human MARK1 (2 to 795 residues) assessed as enzyme activity at 1 uM using 33P ATP by radioactive filter binding assay; parameters: scale not given: the % may be the effect or the level left
[6] = target: Misshapen-like kinase 1 (Homo sapiens) (UniProt Q8N4C8); assay: Inhibition of human MINK1 (1 to 320 residues) assessed as enzyme activity at 1 uM using 33P ATP by radioactive filter binding assay; parameters: scale not given: the % may be the effect or the level left
[7] = target: Dual specificity mitogen-activated protein kinase kinase 2 (Homo sapiens) (UniProt P36507); assay: Inhibition of human MKK2 (2 to 400 residues) assessed as enzyme activity at 1 uM using 33P ATP by radioactive filter binding assay; parameters: scale not given: the % may be the effect or the level left
[8] = target: Dual specificity mitogen-activated protein kinase kinase 6 (Homo sapiens) (UniProt P52564); assay: Inhibition of human MKK6 (2 to 334 residues) assessed as enzyme activity at 1 uM using 33P ATP by radioactive filter binding assay; parameters: scale not given: the % may be the effect or the level left
[9] = target: Mitogen-activated protein kinase kinase kinase 11 (Homo sapiens) (UniProt Q16584); assay: Inhibition of human MLK3 (96 to 386 residues) assessed as enzyme activity at 1 uM using 33P ATP by radioactive filter binding assay; parameters: scale not given: the % may be the effect or the level left
[10] = target: Serine/threonine-protein kinase 16 (Homo sapiens) (UniProt O75716); assay: Inhibition of human MPSK1 (1 to 305 residues) assessed as enzyme activity at 1 uM using 33P ATP by radioactive filter binding assay; parameters: scale not given: the % may be the effect or the level left
[11] = target: NUAK family SNF1-like kinase 1 (Homo sapiens) (UniProt O60285); assay: Inhibition of human NUAK1 (2 to 660 residues) assessed as enzyme activity at 1 uM using 33P ATP by radioactive filter binding assay; parameters: scale not given: the % may be the effect or the level left
[12] = target: Serine/threonine-protein kinase PAK 2 (Homo sapiens) (UniProt Q13177); assay: Inhibition of human PAK2 (1 to 524 residues) assessed as enzyme activity at 1 uM using 33P ATP by radioactive filter binding assay; parameters: scale not given: the % may be the effect or the level left
[13] = target: Protein kinase C gamma type (Homo sapiens) (UniProt P05129); assay: Inhibition of human PKCgamma (1 to 697 residues) assessed as enzyme activity at 1 uM using 33P ATP by radioactive filter binding assay; parameters: scale not given: the % may be the effect or the level left
[14] = target: Mitogen-activated protein kinase kinase kinase 7 (Homo sapiens) (UniProt O43318); assay: Inhibition of human TAB1 fused TAK1 (1 to 303 residues) assessed as enzyme activity at 1 uM using 33P ATP by radioactive filter binding assay; parameters: scale not given: the % may be the effect or the level left
[15] = target: Serine/threonine-protein kinase TAO1 (Homo sapiens) (UniProt Q7L7X3); assay: Inhibition of human TAO1 (1 to 356 residues) assessed as enzyme activity at 1 uM using 33P ATP by radioactive filter binding assay; parameters: scale not given: the % may be the effect or the level left
[16] = target: Serine/threonine-protein kinase tousled-like 1 (Homo sapiens) (UniProt Q9UKI8); assay: Inhibition of human TLK1 (1 to 766 residues) assessed as enzyme activity at 1 uM using 33P ATP by radioactive filter binding assay; parameters: scale not given: the % may be the effect or the level left
[17] = target: T2, 3-phosphoinositide-dependent protein kinase 1 (Homo sapiens, UniProt O15530); assay: Inhibition of human PDK1
T2 sequence (O15530 whole entry): T1 sequence (whole entry)

[18] = target: Calcium/calmodulin-dependent protein kinase kinase 1 (Homo sapiens) (UniProt Q8N5S9); assay: Inhibition of CAMKK1 (unknown origin) assessed as enzyme activity at 1 uM using 33P ATP by radioactive filter binding assay; parameters: scale not given: the % may be the effect or the level left
[19] = target: Casein kinase II subunit alpha (Homo sapiens) (UniProt P68400); assay: Inhibition of human CK2alpha (2 to 391 residues) assessed as enzyme activity at 1 uM using 33P ATP by radioactive filter binding assay; parameters: scale not given: the % may be the effect or the level left
[20] = target: Death-associated protein kinase 1 (Homo sapiens) (UniProt P53355); assay: Inhibition of human DAPK1 (1 to 363 residues) assessed as enzyme activity at 1 uM using 33P ATP by radioactive filter binding assay; parameters: scale not given: the % may be the effect or the level left
[21] = target: Eukaryotic translation initiation factor 2-alpha kinase 3 (Homo sapiens) (UniProt Q9NZJ5); assay: Inhibition of human EIF2AK3 (536 to 1116 residues) assessed as enzyme activity at 1 uM using 33P ATP by radioactive filter binding assay; parameters: scale not given: the % may be the effect or the level left
[22] = target: Ephrin type-B receptor 1 (Homo sapiens) (UniProt P54762); assay: Inhibition of human EPHB1 (565 to 984 residues) assessed as enzyme activity at 1 uM using 33P ATP by radioactive filter binding assay; parameters: scale not given: the % may be the effect or the level left
[23] = target: Ephrin type-B receptor 2 (Homo sapiens) (UniProt P29323); assay: Inhibition of human EPHB2 (560 to 987 residues) assessed as enzyme activity at 1 uM using 33P ATP by radioactive filter binding assay; parameters: scale not given: the % may be the effect or the level left
[24] = target: Mitogen-activated protein kinase kinase kinase kinase 2 (Homo sapiens) (UniProt Q12851); assay: Inhibition of human GCK (2 to 812 residues) assessed as enzyme activity at 1 uM using 33P ATP by radioactive filter binding assay; parameters: scale not given: the % may be the effect or the level left

Chain of Dual specificity mitogen-activated protein kinase kinase 6 (Homo sapiens) (P52564 whole entry, the tested form may be a part): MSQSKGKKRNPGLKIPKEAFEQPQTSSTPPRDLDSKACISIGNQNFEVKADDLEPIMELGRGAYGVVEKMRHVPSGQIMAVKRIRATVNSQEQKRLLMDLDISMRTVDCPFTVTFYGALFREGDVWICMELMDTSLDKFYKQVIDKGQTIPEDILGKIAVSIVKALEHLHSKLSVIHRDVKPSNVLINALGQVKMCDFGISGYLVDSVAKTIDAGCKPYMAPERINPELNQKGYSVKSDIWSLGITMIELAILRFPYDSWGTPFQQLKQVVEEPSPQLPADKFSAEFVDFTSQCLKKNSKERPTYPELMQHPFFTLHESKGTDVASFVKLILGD
Chain of Mitogen-activated protein kinase 9 (Homo sapiens) (P45984 whole entry, looked up, the tested form may be a part): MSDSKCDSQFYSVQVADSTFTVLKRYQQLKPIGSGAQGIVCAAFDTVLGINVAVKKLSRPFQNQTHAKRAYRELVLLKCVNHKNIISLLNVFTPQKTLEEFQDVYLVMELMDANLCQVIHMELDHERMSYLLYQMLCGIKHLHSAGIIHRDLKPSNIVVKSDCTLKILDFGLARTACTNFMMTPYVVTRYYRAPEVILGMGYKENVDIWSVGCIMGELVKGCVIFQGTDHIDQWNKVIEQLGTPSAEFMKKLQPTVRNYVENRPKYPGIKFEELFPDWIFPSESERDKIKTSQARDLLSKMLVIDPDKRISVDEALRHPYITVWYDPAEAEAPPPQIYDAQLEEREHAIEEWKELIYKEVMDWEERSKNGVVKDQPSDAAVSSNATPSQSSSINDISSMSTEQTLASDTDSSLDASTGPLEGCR
Chain of Interleukin-1 receptor-associated kinase 4 (Homo sapiens) (Q9NWZ3 whole entry, the tested form may be a part): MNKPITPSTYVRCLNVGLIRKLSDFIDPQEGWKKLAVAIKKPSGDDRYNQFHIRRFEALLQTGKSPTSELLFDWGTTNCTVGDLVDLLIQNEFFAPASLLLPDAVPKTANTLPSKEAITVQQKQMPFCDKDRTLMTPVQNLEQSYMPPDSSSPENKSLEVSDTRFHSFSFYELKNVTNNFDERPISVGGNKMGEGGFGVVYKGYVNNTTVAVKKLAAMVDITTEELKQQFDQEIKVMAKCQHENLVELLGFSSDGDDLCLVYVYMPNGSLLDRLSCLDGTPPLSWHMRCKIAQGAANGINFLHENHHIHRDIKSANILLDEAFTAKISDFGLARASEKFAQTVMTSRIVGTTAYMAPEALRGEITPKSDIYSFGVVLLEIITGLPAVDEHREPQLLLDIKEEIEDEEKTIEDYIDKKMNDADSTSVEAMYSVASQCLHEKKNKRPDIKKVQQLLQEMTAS
Chain of Tyrosine-protein kinase JAK2 (Homo sapiens) (O60674 whole entry, the tested form may be a part): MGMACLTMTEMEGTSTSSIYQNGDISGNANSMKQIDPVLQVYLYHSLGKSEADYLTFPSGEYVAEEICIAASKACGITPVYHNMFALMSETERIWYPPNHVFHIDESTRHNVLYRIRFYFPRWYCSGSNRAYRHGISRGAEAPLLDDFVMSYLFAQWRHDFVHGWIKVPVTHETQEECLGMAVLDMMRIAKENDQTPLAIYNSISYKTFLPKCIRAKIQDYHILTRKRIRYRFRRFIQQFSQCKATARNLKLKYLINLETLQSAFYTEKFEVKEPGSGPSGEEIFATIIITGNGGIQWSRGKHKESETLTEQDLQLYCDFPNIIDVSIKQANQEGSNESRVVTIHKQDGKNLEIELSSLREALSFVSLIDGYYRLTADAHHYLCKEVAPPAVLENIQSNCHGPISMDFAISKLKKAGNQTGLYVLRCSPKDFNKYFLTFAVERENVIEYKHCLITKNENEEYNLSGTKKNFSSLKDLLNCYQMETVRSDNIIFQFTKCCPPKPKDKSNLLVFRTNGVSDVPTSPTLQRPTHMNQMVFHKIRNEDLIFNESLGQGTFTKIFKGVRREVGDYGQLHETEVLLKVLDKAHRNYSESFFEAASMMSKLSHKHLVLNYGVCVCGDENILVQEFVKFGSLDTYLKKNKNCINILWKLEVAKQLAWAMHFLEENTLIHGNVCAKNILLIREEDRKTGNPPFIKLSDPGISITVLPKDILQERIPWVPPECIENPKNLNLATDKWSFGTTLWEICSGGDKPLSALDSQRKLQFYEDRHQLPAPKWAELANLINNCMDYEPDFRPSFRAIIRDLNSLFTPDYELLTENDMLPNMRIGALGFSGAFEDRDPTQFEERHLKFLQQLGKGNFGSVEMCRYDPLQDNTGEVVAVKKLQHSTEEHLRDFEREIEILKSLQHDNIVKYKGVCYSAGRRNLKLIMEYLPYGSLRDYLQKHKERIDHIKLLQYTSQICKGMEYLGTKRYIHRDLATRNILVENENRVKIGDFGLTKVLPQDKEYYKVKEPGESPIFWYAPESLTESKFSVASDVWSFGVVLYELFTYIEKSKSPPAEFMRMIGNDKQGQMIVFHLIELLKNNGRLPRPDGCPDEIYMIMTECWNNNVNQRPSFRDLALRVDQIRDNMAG
Chain of Mitogen-activated protein kinase kinase kinase 7 (Homo sapiens) (O43318 whole entry, the tested form may be a part): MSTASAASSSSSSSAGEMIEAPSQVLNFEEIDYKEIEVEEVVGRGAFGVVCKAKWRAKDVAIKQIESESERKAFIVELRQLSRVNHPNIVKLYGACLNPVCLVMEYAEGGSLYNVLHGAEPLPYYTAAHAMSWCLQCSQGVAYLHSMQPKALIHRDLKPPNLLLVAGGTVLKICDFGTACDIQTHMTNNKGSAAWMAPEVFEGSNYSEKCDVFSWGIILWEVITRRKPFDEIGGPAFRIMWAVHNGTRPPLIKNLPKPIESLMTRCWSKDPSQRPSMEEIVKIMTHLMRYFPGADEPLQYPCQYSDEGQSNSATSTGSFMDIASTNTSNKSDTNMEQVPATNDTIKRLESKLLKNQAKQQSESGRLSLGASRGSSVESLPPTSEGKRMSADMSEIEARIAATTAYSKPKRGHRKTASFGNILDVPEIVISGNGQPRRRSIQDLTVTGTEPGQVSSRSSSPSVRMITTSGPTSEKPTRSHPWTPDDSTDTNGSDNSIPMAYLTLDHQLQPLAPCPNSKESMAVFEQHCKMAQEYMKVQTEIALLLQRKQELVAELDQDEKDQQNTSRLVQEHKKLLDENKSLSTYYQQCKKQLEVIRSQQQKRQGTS
Chain of NUAK family SNF1-like kinase 1 (Homo sapiens) (O60285 whole entry, the tested form may be a part): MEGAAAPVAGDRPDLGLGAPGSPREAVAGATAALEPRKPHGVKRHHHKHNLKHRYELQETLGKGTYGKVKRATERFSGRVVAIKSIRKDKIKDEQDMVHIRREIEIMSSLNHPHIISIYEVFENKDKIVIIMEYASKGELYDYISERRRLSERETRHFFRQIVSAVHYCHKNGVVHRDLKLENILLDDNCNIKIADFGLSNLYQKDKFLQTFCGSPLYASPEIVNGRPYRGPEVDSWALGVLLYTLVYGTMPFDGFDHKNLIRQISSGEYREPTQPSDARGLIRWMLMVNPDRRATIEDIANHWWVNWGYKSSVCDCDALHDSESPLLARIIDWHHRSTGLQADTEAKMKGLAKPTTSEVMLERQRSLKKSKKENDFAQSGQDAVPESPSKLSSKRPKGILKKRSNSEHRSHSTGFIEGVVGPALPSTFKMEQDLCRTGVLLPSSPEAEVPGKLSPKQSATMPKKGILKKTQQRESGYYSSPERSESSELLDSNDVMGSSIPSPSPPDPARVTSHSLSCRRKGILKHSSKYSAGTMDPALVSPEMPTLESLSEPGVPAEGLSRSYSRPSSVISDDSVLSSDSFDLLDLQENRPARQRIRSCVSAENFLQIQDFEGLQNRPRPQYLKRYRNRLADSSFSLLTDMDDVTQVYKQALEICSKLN
Chain of Ephrin type-B receptor 2 (Homo sapiens) (P29323 whole entry, the tested form may be a part): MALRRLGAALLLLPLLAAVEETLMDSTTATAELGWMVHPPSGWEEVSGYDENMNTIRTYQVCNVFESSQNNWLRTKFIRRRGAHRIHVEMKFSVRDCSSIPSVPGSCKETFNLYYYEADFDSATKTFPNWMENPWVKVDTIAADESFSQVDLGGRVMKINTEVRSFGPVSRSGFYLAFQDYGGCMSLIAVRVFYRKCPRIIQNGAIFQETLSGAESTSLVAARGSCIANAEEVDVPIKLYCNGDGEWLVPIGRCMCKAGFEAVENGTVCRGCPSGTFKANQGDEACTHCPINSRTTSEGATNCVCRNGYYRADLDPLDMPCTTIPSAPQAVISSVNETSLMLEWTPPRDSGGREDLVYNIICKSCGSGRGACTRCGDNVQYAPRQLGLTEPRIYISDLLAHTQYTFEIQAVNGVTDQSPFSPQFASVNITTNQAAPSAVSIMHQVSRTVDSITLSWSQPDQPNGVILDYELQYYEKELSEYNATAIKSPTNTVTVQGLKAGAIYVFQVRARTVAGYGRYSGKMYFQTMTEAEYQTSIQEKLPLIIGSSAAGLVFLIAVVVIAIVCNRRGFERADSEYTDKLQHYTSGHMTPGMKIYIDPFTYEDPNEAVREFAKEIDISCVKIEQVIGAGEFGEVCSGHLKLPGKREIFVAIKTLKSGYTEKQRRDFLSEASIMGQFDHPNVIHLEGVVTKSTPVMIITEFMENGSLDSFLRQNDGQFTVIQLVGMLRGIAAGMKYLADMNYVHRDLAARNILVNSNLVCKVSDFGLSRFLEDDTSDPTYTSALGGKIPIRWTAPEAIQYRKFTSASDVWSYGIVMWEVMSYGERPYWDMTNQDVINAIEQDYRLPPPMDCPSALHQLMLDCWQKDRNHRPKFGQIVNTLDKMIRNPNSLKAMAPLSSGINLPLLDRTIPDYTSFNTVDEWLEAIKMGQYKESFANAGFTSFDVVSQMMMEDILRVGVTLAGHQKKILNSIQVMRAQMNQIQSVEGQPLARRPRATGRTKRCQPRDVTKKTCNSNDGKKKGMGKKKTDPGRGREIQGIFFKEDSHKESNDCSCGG
Chain of Serine/threonine-protein kinase 16 (Homo sapiens) (O75716 whole entry, the tested form may be a part): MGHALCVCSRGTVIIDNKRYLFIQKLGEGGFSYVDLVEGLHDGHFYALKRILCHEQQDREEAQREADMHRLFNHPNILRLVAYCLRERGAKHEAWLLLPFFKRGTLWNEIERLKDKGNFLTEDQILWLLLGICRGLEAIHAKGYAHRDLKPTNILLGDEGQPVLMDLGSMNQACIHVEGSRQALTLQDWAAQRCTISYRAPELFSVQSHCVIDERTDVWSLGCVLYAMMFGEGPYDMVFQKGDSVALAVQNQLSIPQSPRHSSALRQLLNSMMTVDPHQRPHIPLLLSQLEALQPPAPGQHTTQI

## CCCCc1cc(-c2c[nH]c3ncc(-c4cnn(C5CCNCC5)c4)cc23)nc(N)n1
Homo sapiens
  Ratio IC50: 65
[1]
  Ratio IC50: 30

## Nc1nccc(-c2c[nH]c3ncccc23)n1 [MERIOLIN 1]
[2]
  Activity: -36%
[3]
  Activity: -25%
[4]
  Activity: -1%
[5]
  Activity: -26%
[6]
  Activity: -78%
[7]
  Activity: -34%
[8]
  Activity: -13%
[9]
  Activity: -35%
[10]
  Activity: -4%
[11]
  Activity: -31%
[12]
  Activity: 1%
[13]
  Activity: -5%
[14]
  Activity: -82%
[15]
  Activity: -15%
[16]
  Activity: -14%
[17]
  IC50: 5.9 µM
[18]
  Activity: -33%
[19]
  Activity: -3%
[20]
  Activity: -28%
[21]
  Activity: -9%
[22]
  Activity: -10%
[23]
  Activity: 15%
[24]
  Activity: -83%

From ChEMBL document CHEMBL3813616, “Discovery of novel 7-azaindoles as PDK1 inhibitors” (Bioorg Med Chem Lett, 2016)
